Results on 15 molecules are retold here after patent US10004732B2 (Novartis AG, priority 2014, dated 2018).

Series [1] addresses Vps34 (Homo sapiens, UniProt Q8NEB9). The series is described as follows: Kinase Glo Luminescent Kinase Assay (Kglo), assay C. It is filed as biochemical. Particulars: read-out: Assay C VPS34 IC50.
For series [2], the target named is T1, PI 3-kinase gamma (Homo sapiens, UniProt P48736). The series is described as follows: Cellular U937 AKT assay K1 (MSD). The format is cell-based. The note with it: U937 cells, K1 format; read-out: Assay K1 PI3Kγ IC50.
In series [3] the target is T2, PI 3-kinase beta (Homo sapiens, UniProt P42338). The series is described as follows: Kinase Glo Luminescent Kinase Assay (Kglo), assay B. Particulars: read-out: Assay B PI3Kβ IC50. It is filed as biochemical.
Target sequence in this assay (P42338 whole entry): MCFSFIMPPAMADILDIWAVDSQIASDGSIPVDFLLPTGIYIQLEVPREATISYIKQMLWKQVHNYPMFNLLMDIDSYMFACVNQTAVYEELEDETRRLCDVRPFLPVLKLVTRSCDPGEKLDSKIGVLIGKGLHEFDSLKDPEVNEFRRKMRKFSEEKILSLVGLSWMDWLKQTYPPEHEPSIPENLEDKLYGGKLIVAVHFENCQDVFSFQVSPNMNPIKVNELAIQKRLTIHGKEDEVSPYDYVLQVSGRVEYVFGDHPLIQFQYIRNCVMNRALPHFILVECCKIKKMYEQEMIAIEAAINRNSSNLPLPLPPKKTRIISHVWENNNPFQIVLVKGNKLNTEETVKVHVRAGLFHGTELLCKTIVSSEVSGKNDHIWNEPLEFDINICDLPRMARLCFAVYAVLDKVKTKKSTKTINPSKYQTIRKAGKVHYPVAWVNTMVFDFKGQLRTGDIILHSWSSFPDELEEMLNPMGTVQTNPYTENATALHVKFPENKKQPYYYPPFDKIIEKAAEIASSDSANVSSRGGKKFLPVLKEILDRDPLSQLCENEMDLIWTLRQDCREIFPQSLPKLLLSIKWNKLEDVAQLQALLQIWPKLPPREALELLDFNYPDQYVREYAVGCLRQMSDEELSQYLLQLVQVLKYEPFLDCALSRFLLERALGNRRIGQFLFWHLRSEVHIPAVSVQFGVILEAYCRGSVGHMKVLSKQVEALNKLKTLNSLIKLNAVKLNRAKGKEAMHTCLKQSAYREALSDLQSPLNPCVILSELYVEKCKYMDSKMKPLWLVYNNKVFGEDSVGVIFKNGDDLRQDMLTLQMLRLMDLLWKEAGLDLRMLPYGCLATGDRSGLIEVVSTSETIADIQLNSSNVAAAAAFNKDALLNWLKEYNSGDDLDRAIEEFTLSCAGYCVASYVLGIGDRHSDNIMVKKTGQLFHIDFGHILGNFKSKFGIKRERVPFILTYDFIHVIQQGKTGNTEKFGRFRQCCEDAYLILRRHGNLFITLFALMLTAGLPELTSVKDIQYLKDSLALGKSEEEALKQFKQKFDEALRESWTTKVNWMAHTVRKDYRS
Target sequence in this assay (P27986 461-568 partner): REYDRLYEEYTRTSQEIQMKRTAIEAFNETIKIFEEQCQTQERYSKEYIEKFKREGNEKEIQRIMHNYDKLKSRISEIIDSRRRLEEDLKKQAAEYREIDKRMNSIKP
The target of series [4] is T2, PI 3-kinase beta. The series is described as follows: Cellular assay I1, p-Akt (S473) in Rat-1 cells, Surefire format. The note with it: non-asterisked data: version I1 (Surefire format), Rat-1 cells; read-out: Assay I PI3Kβ IC50. It is filed as cell-based.
Target sequence in this assay (P42338 whole entry): as the sequence (P42338 whole entry) above
Target sequence in this assay (Q63787 whole entry partner): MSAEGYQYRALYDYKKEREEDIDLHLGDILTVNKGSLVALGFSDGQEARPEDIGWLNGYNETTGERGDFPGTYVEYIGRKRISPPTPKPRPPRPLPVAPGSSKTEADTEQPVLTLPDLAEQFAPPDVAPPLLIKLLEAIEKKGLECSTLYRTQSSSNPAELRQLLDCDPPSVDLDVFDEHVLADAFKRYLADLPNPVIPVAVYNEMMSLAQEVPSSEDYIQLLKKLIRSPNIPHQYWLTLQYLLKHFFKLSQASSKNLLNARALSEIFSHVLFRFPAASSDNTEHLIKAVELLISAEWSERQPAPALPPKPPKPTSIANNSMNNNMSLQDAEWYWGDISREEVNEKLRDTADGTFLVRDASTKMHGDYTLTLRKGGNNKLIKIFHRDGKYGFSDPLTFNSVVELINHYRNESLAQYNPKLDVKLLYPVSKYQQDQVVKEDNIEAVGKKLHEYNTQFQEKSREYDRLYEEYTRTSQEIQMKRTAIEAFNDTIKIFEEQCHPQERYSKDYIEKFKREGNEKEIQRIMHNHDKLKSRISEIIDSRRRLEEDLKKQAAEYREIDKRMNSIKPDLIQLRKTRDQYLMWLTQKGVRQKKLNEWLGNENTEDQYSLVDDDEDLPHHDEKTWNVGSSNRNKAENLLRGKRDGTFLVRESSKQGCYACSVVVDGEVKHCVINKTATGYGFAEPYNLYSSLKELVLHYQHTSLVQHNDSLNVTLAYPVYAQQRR
Series [5] has as its target T3, PI 3-kinase alpha (Homo sapiens, UniProt P42336). The series is described as follows: Cellular assay H1, p-Akt (S473) in Rat-1 cells, Surefire format. The format is cell-based. The note with it: non-asterisked data: version H1 (Surefire format), Rat-1 cells; read-out: Assay H PI3Kα IC50.
In series [6] the target is mTOR (Homo sapiens, UniProt P42345). The experiment in a line: Lanthascreen kinase binding assay, assay G. The note with it: read-out: Assay G mTOR IC50.
Procedure: Lanthascreen™ Kinase Binding Assay for mTOR (G)
Binding of an inhibitor to the kinase competes for binding with the tracer, resulting in a loss of FRET.
50 nL of compound dilutions were dispensed onto white 384-well small volume polystyrene plate.
Series [7] concerns the target T1, PI 3-kinase gamma. The series is described as follows: TR-FRET Adapta assay, assay E. The format is biochemical. The note with it: read-out: Assay E PI3Kγ IC50.
Series [8] has as its target T4, PI 3-kinase delta (Homo sapiens, UniProt O00329). The experiment in a line: Cellular assay J1, p-Akt (S473) in Rat-1 cells, Surefire format. It is filed as cell-based. The note with it: non-asterisked data: version J1 (Surefire format), Rat-1 cells; read-out: Assay J PI3Kδ IC50.
Target sequence in this assay (O00329 whole entry): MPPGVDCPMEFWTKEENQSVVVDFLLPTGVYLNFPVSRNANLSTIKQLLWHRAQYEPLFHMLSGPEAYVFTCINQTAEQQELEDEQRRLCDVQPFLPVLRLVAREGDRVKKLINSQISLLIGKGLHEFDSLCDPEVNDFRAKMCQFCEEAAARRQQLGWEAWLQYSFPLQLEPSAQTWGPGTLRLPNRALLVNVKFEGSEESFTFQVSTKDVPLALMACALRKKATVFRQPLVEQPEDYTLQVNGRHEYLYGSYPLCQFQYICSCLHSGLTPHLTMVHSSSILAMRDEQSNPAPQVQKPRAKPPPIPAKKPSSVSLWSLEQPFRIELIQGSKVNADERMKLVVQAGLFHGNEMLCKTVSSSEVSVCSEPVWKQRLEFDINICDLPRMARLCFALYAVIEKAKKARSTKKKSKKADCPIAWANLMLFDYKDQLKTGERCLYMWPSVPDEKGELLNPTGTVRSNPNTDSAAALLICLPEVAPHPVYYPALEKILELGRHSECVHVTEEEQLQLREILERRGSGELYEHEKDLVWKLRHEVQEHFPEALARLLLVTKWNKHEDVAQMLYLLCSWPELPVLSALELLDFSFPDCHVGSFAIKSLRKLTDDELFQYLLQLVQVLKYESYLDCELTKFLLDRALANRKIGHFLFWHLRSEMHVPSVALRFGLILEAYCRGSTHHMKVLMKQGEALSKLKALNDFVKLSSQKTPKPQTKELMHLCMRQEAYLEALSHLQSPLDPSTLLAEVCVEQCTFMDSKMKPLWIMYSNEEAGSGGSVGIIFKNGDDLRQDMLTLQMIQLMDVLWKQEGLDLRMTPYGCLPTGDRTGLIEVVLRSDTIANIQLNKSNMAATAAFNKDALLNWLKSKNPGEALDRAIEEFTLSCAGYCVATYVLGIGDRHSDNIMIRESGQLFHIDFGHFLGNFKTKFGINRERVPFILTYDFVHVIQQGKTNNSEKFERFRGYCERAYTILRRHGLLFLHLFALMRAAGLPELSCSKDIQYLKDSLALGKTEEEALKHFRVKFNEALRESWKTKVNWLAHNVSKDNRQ
Target sequence in this assay (Q63787 whole entry partner): as the sequence (Q63787 whole entry partner) above
The nature of series [9]: Microsomal clearance assay (M). The note with it: intrinsic clearance in rat liver microsomes.
Procedure: The experiments were performed in 96-well glass plates at 37° C. on an automated Tecan EVO platform. Test compounds at a concentration of 10 mM in pure DMSO were diluted 1:1000 in water to 10 μM. […] Reactions were initiated by the addition of 150 μL of a cofactor solution containing 2 mM NADPH.
The target of series [10] is T3, PI 3-kinase alpha. The series is described as follows: Kinase Glo Luminescent Kinase Assay (Kglo), assay A. The format is biochemical. The note with it: read-out: Assay A PI3Kα IC50.
Series [11] has as its target PI 4-kinase beta (Homo sapiens, UniProt Q9UBF8). The series is described as follows: Kinase Glo Luminescent Kinase Assay (Kglo), assay D. It is filed as biochemical. The note with it: read-out: Assay D PI4Kβ IC50.
Series [12] addresses T4, PI 3-kinase delta. The series is described as follows: TR-FRET Adapta assay, assay F. The note with it: read-out: Assay F PI3Kδ IC50.
Target sequence in this assay (O00329 whole entry): as the sequence (O00329 whole entry) above
Target sequence in this assay (P27986 461-568 partner): as the sequence (P27986 461-568 partner) above
The subject of series [13] is IL-8-induced neutrophil shape change in human whole blood. The series is described as follows: Whole blood neutrophil shape change assay (L). It is filed as cell-based. Particulars: Homo sapiens, Neutrophil, IL-8, human whole blood, read-out: Assay L WBSC IC50.

Structures can show the parent of a compound that is named as a salt.

T1 sequence (P48736 whole entry): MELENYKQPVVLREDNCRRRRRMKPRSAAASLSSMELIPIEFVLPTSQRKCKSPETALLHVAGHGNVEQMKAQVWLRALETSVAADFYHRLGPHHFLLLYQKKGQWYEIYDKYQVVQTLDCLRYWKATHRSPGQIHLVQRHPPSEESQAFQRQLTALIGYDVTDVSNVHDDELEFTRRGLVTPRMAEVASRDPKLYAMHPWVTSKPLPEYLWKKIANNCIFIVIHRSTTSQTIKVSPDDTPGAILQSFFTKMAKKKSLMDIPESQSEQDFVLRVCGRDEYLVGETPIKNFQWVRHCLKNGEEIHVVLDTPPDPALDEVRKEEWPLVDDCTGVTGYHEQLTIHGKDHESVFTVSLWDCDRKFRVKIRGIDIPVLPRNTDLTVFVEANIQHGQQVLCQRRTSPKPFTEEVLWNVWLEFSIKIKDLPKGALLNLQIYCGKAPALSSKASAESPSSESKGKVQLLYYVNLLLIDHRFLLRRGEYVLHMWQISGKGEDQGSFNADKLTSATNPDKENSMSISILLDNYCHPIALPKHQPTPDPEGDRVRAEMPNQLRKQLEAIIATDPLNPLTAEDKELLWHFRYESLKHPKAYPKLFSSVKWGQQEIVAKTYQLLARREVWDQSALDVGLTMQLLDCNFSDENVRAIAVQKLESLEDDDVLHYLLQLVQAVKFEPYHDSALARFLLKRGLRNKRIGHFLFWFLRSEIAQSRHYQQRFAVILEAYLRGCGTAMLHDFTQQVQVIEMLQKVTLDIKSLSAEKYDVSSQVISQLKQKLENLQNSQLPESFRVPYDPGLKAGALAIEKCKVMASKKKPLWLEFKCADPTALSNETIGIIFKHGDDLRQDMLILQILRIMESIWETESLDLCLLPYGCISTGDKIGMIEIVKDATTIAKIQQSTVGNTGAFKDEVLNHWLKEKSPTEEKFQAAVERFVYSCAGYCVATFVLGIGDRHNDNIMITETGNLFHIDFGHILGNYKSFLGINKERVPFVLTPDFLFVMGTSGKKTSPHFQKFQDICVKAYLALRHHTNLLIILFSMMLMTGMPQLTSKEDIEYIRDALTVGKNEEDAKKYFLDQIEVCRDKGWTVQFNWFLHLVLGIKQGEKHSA
PI 4-kinase beta, sequence (Q9UBF8 whole entry): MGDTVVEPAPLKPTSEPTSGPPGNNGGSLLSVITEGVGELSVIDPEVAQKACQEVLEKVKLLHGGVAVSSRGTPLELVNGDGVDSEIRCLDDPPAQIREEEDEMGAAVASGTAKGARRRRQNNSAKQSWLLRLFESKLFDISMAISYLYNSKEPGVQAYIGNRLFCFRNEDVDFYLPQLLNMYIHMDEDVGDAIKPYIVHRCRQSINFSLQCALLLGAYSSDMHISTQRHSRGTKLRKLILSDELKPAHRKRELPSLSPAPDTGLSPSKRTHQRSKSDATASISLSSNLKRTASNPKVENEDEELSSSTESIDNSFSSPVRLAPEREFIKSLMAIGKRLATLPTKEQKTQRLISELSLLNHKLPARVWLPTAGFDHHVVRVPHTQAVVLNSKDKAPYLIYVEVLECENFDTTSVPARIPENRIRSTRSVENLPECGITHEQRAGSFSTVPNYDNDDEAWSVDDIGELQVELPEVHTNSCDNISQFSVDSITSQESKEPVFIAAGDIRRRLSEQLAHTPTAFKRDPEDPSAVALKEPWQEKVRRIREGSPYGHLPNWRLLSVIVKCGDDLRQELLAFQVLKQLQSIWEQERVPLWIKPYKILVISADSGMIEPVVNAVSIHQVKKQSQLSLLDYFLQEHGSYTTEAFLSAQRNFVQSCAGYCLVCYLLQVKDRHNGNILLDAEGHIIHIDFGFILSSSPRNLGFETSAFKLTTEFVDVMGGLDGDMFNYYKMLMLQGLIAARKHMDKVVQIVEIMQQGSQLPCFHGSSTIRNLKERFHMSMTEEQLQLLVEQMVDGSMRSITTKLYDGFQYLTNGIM

On to `Cc1ccc(S(=O)(=O)NCCC(C)(C)O)cc1-c1cnc(N)c(-c2cnn(Cc3cccnc3)c2)n1` [Example 119.38], for which the half-maximal inhibitory concentration (IC50) is more than 9100 nM in series [1]; 34 nM in series [2]; 3500 nM in series [3]; 2210 nM in series [4]; 6570 nM in [5]; 4600 nM in series [6]. In addition, the IC50 is 12 nM in series [7]; 1030 nM in series [8]; 90 nM in series [10]; 6300 nM in series [11]; 30 nM in series [12]. In series [9], the “Assay M RLM CI(int)” value came out at 167 µL/min/mg.

Turning to `Cc1ccc(S(=O)(=O)NCCC(C)(C)O)cc1-c1cnc(N)c(-c2cnn(Cc3ccncc3)c2)n1` [Example 119.39], the IC50 in [1] was more than 9100 nM; in series [2], 34 nM; in series [3] it was 2800 nM; in [4], 2150 nM; in series [5], 5040 nM; in series [6], 6900 nM. Besides, the IC50 in series [7] was 6 nM; in series [8], 1610 nM; in [10], 100 nM; in series [11], 6500 nM; in series [12] it was 40 nM. Also, the “Assay M RLM CI(int)” value in series [9] worked out at 203 µL/min/mg.

Regarding `Cc1ccc(S(=O)(=O)NCCC(C)(C)O)cc1-c1cnc(N)c(-c2cnn(CCN3CCOCC3)c2)n1` [Example 119.41], the IC50 was more than 10000 nM in series [1]; 91 nM in series [2]; 3250 nM in series [3]; 3200 nM in [4]; more than 10000 nM in [5]; more than 10000 nM in [6]. Further, the IC50 in [7] was 25 nM; in series [8], 6490 nM; in series [10], 420 nM; in [11], 6000 nM; in [12] it was 30 nM. Further, in series [9], the “Assay M RLM CI(int)” value was 73 µL/min/mg.

In the case of `Cc1cc(Cl)c(S(=O)(=O)NCC(C)(C)O)cc1-c1cnc(N)c(-n2cncn2)n1` [Example 124, 5-(5-Amino-6-(1H-1,2,4-triazol-1-yl)pyrazin-2-yl)-2-chloro-N-(2-hydroxy-2-methylpropyl)-4-methylbenzenesulfonamide], the IC50 was more than 10000 nM in series [1]; 38 nM in [2]; 100 nM in series [3]; 810 nM in series [4]; 250 nM in series [5]; 710 nM in series [6]. The IC50 was found to be 22 nM in series [7]; 290 nM in series [8]; 40 nM in [10]; 420 nM in series [11]; 160 nM in [12]. In addition, the “Assay M RLM CI(int)” value in series [9] was determined as 79 µL/min/mg.

Turning to `Cc1ccc(S(=O)(=O)NCC(F)(F)F)cc1-c1cnc(N)c(-n2cncn2)n1` [Example 127, 3-(5-Amino-6-(1H-1,2,4-triazol-1-yl)pyrazin-2-yl)-4-methyl-N-(2,2,2-trifluoroethyl)benzenesulfonamide], the IC50 in series [1] was more than 10000 nM; in [3], 1100 nM; in series [6], 2600 nM; in [7], 24 nM; in [10], 300 nM; in series [11], 4400 nM. Moreover, the IC50 stood at 880 nM in [12] and 1500 nM in [13].

On to `Cc1ccc(S(=O)(=O)NC2CC(F)(F)C2)cc1-c1cnc(N)c(-n2cncn2)n1` [Example 127.7], for which the IC50 in series [1] is more than 10000 nM; in series [3], 1300 nM; in series [6], 1500 nM; in series [7], 40 nM; in series [10] it was 260 nM; in series [11], 6300 nM. Besides, the IC50 came to 1100 nM in series [12] and 3990 nM in [13].

As to `Cc1ccc(S(=O)(=O)NCC2(O)CCC2)cc1-c1cnc(N)c(-n2cncn2)n1` [Example 127.16], the IC50 is more than 10000 nM in [1]; 810 nM in [3]; 8700 nM in series [6]; 45 nM in [7]; 330 nM in series [10]; 5000 nM in series [11]. Further, the IC50 worked out at 1100 nM in [12] and 1720 nM in series [13].

As to `Cc1ccc(S(=O)(=O)NC[C@@H]2CCOC2)cc1-c1cnc(N)c(-n2cncn2)n1` [Example 127.26], the IC50 is more than 10000 nM in series [1]; 2000 nM in series [3]; 5900 nM in [6]; 150 nM in [7]; 570 nM in series [10]; 5200 nM in [11]. Further, the concentration for half-maximal inhibition (IC50) in [12] was 230 nM; in [13], 1790 nM.

`Cc1ccc(S(=O)(=O)NCCC(F)(F)F)cc1-c1cnc(N)c(-n2cncn2)n1` [Example 127.31]: the IC50 in [1] is more than 10000 nM; in [2] it was 103 nM; in series [3], 1550 nM; in series [4], 1710 nM; in series [5], 850 nM; in [6], 7950 nM. Further, the IC50 in [7] was found to be 67 nM; in series [8] it was 1050 nM; in [10], 190 nM; in [11] it was 4870 nM; in [12], 450 nM. In series [9], the “Assay M RLM CI(int)” value was 192 µL/min/mg.

For `Cc1ccc(S(=O)(=O)NC[C@@H]2CCC(C)(C)O2)cc1-c1cnc(N)c(-n2cncn2)n1` [Example 127.39], the IC50 is more than 10000 nM in [1]; 2300 nM in series [3]; 9300 nM in series [6]; 100 nM in series [7]; 1400 nM in [10]; more than 10000 nM in series [11]. The IC50 in series [12] is 2100 nM; in series [13], 6280 nM.

As to `Cc1ccc(S(=O)(=O)N[C@H](C#N)CO)cc1-c1cnc(N)c(-n2cncn2)n1` [Example 127.48], the IC50 was more than 10000 nM in [1]; 6200 nM in series [3]; 60 nM in series [7]; 1200 nM in series [10]; 5900 nM in series [11]; 3200 nM in series [12]. The IC50 in series [13] is 2490 nM.

For `Cc1ccc(S(=O)(=O)NC2CCC2)cc1-c1cnc(N)c(-n2cncn2)n1` [Example 127.54], the half-maximal inhibitory concentration (IC50) in series [1] was more than 10000 nM; in [3], 1100 nM; in [6], 1800 nM; in [7], 32 nM; in series [10], 180 nM; in [11], 2600 nM. Also, the IC50 is 1100 nM in series [12] and more than 100000 nM in series [13].

With `Cc1ccc(S(=O)(=O)NC[C@H]2CCNC2)cc1-c1cnc(N)c(-n2cncn2)n1` [Example 127.58, (S)-3-(5-amino-6-(1H-1,2,4-triazol-1-yl)pyrazin-2-yl)-4-methyl-N-(pyrrolidin-3-ylmethyl)benzenesulfonamide trifluoroacetic acid salt], the IC50 in series [1] is more than 10000 nM; in [3], 1300 nM; in series [6] it was 1200 nM; in [7], 42 nM; in [10], 1300 nM; in series [11], more than 10000 nM. The IC50 in series [12] worked out at 460 nM; in series [13], 23600 nM.

Turning to `Cc1cc(-c2nc(-c3cc(S(=O)(=O)NCC4CCCO4)ccc3C)cnc2N)ccn1` (stereo not drawn) [Example 129.17, 3-(5-amino-6-(2-methylpyridin-4-yl)pyrazin-2-yl)-4-methyl-N-((tetrahydrofuran-2-yl)methyl)benzenesulfonamide], the IC50 in series [1] was more than 9100 nM; in series [2] it was 354 nM; in series [3], 5500 nM; in series [4], 3720 nM; in [5] it was 2500 nM; in series [6], more than 9100 nM. Moreover, the IC50 in [7] is 56 nM; in [8], 1940 nM; in series [10], 350 nM; in series [11] it was more than 9100 nM; in series [12], 420 nM. The “Assay M RLM CI(int)” value in [9] was 104 µL/min/mg.

Turning to `Cc1cc(-c2nc(-c3cc(S(=O)(=O)NCC4CCOC4)ccc3C)cnc2N)ccn1` (stereo not drawn) [Example 129.18, 3-(5-amino-6-(2-methylpyridin-4-yl)pyrazin-2-yl)-4-methyl-N-((tetrahydrofuran-3-yl)methyl)benzenesulfonamide], the IC50 in series [1] was more than 9100 nM; in [2] it was 528 nM; in series [3] it was 8110 nM; in series [4], more than 10000 nM; in [5] it was 4920 nM; in series [6], more than 9100 nM. In addition, the IC50 is 64 nM in series [7]; 5630 nM in series [8]; 690 nM in series [10]; more than 9100 nM in [11]; 400 nM in series [12]. For the same molecule, the “Assay M RLM CI(int)” value in series [9] amounted to 97 µL/min/mg.
